Laboratory results published in patent US9790229B2, “Bruton's tyrosine kinase inhibitors” (priority 2009, dated 2017).
Like-named read-outs stand apart in the source and are kept apart here.

Target: BTK (Homo sapiens (Human), UniProt Q06187)
Assay: In vitro BTK kinase assay: BTK-POLYGAT-LS ASSAY
[1] = read-out: IC50 (10 uM ATP), 10 uM ATP, in vitro Btk kinase assay, Example 41

Sequence of BTK (Q06187 whole entry): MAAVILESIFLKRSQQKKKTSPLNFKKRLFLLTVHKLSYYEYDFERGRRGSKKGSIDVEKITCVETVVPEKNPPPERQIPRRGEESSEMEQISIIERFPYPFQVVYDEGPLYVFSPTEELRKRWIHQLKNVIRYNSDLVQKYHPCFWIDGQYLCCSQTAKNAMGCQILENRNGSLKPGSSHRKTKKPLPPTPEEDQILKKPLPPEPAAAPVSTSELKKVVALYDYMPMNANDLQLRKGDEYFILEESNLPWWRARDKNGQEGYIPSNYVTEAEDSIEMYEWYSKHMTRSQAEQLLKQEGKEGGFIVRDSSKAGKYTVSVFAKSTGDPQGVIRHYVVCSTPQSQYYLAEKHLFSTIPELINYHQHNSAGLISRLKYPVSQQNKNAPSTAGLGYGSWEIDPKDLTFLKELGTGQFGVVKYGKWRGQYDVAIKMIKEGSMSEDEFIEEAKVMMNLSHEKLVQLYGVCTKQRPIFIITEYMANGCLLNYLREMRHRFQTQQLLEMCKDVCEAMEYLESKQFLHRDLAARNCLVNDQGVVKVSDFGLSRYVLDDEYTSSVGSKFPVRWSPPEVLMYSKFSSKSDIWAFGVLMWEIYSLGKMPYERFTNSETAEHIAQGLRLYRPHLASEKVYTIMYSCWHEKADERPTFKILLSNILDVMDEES

| Structure (SMILES) | IC50 [1] [nM] | other results |
| --- | --- | --- |
| CCNc1ncnc(N2CCC[C@@H](N3CCCC(Nc4cc(F)cc(Cl)c4)C3=O)C2)c1F (stereo partly drawn) [compound 287, (3′R)-3-(3-Chloro-5-fluorophenylamino)-1′-(6-(ethylamino)-5-fluoropyrimidin-4-yl)-1,3′-bipiperidin-2-one] | – | IC50: 1000 to 10000 nM |
| CCCNc1ncnc(N2CCC[C@@H](N3CCCC(Nc4cc(F)cc(Cl)c4)C3=O)C2)c1F (stereo partly drawn) [compound 288, (3′R)-3-(3-Chloro-5-fluorophenylamino)-1′-(5-fluoro-6-(propylamino)pyrimidin-4-yl)-1,3′-bipiperidin-2-one] | – | IC50: 1000 to 10000 nM |
| Nc1ncnc(N2CCC[C@@H](N3CCCC(Nc4cc(F)cc(Cl)c4)C3=O)C2)c1Cl (stereo partly drawn) [compound 289, (3′R)-1′-(6-Amino-5-chloropyrimidin-4-yl)-3-(3-chloro-5-fluorophenylamino)-1,3′-bipiperidin-2-one] | – | IC50: 100 to 999 nM |
| CC(C)(C)NC1CCCN([C@@H]2CCCN(c3ncnc(N)c3F)C2)C1=O (stereo partly drawn) [compound 290, (3′R)-1′-(6-Amino-5-fluoropyrimidin-4-yl)-3-(tert-butylamino)-1,3′-bipiperidin-2-one] | > 10000 | – |
| Nc1ncnc(N2CCC[C@@H](N3CCCC(NCc4ccccc4)C3=O)C2)c1F (stereo partly drawn) [compound 291, (3′R)-1′-(6-Amino-5-fluoropyrimidin-4-yl)-3-(benzylamino)-1,3′-bipiperidin-2-one] | > 10000 | – |
| CC(C)(C)CNC1CCCN([C@@H]2CCCN(c3ncnc(N)c3F)C2)C1=O (stereo partly drawn) [compound 292, (3′R)-1′-(6-Amino-5-fluoropyrimidin-4-yl)-3-(neopentylamino)-1,3′-bipiperidin-2-one] | > 10000 | – |
| Nc1ncnc(N2CCC[C@@H](N3CCCC(NCC4CCCCC4)C3=O)C2)c1F (stereo partly drawn) [compound 293, (3′R)-1′-(6-Amino-5-fluoropyrimidin-4-yl)-3-(cyclohexylmethylamino)-1,3′-bipiperidin-2-one] | > 10000 | – |
| Nc1ncnc(N2CCC[C@@H](N3CCCC(NC4CCC(F)(F)CC4)C3=O)C2)c1F (stereo partly drawn) [compound 294, (3′R)-1′-(6-Amino-5-fluoropyrimidin-4-yl)-3-(4,4-difluorocyclohexylamino)-1,3′-bipiperidin-2-one] | > 10000 | – |
| CCOC(=O)c1ccccc1NC1CCCN([C@@H]2CCCN(c3ncnc(N)c3F)C2)C1=O (stereo partly drawn) [compound 295, Ethyl-2-((3′R)-1′-(6-amino-5-fluoropyrimidin-4-yl)-2-oxo-1,3′-bipiperidin-3-ylamino) benzoate] | > 10000 | – |
| CCOC(=O)c1cccc(NC2CCCN([C@@H]3CCCN(c4ncnc(N)c4F)C3)C2=O)c1 (stereo partly drawn) [compound 296, Ethyl 3-((3′R)-1′-(6-amino-5-fluoropyrimidin-4-yl)-2-oxo-1,3′-bipiperidin-3-ylamino) benzoate] | – | IC50: 1000 to 10000 nM |
| Nc1ncnc(N2CCC[C@@H](N3CCCC(Nc4ccccc4C(=O)O)C3=O)C2)c1F (stereo partly drawn) [compound 297, 2-((3′R)-1′-(6-Amino-5-fluoropyrimidin-4-yl)-2-oxo-1,3′-bipiperidin-3-ylamino)benzoic acid] | – | IC50: 1000 to 10000 nM |
| Nc1ncnc(N2CCC[C@@H](N3CCCC(Nc4ccc(C(=O)O)cc4)C3=O)C2)c1F (stereo partly drawn) [compound 298, 4-((3′R)-1′-(6-Amino-5-fluoropyrimidin-4-yl)-2-oxo-1,3′-bipiperidin-3-ylamino)benzoic acid] | > 10000 | – |
| Nc1ncnc(N2CCC[C@@H](N3CCCC(Nc4cccc(C(=O)O)c4)C3=O)C2)c1F (stereo partly drawn) [compound 299, 3-((3′R)-1′-(6-Amino-5-fluoropyrimidin-4-yl)-2-oxo-1,3′-bipiperidin-3-ylamino)benzoic acid] | > 10000 | – |
| O=C1C(Nc2cc(Cl)cc(C(F)(F)F)c2)CCCN1[C@@H]1CCCN(c2ncnc3[nH]ccc23)C1 (stereo partly drawn) [compound 300, (3′R)-3-(3-Chloro-5-(trifluoromethyl)phenylamino)-1′-(7H-pyrrolo[2,3-d]pyrimidin-4-yl)-1,3′-bipiperidin-2-one] | < 100 | – |
| O=C1C(NC2CCCC2)CCCN1[C@@H]1CCCN(c2ncnc3[nH]ccc23)C1 (stereo partly drawn) [compound 303, (3′R)-3-(Cyclopentylamino)-1′-(7H-pyrrolo[2,3-d]pyrimidin-4-yl)-1,3′-bipiperidin-2-one] | > 10000 | – |
| O=C1C(NC2CCCCC2)CCCN1[C@@H]1CCCN(c2ncnc3[nH]ccc23)C1 (stereo partly drawn) [compound 304, (3′R)-3-(Cyclohexylamino)-1′-(7H-pyrrolo[2,3-d]pyrimidin-4-yl)-1,3′-bipiperidin-2-one] | > 10000 | – |
| O=C1C(Nc2cc(Cl)cc(C(F)(F)F)c2)CCCN1[C@@H]1CCCN(c2ncnc3[nH]ncc23)C1 (stereo partly drawn) [compound 305, (3′R)-3-(3-Chloro-5-(trifluoromethyl)phenylamino)-1′-(1H-pyrazolo[3,4-d]pyrimidin-4-yl)-1,3′-bipiperidin-2-one] | < 100 | – |
| Nc1ncnc(N2CCC[C@@H](N3CCCC(Nc4cc(Cl)cc(C(F)(F)F)c4)C3=O)C2)c1F (stereo partly drawn) [compound 308, (3′R)-1′-(6-Amino-5-fluoropyrimidin-4-yl)-3-(3-chloro-5-(trifluoromethyl)phenylamino)-1,3′-bipiperidin-2-one] | – | IC50 (read-out: IC50 (10 uM ATP)): < 100 nM |

| Structure (SMILES) | IC50 [1] [nM] | other results |
| --- | --- | --- |
| Nc1ncnc(N2CCC[C@@H](N3CCCC(Nc4cc(Cl)c(F)c(Cl)c4)C3=O)C2)c1F (stereo partly drawn) [compound 309, (3′R)-1′-(6-Amino-5-fluoropyrimidin-4-yl)-3-(3,5-dichloro-4-fluorophenylamino)-1,3′-bipiperidin-2-one] | < 100 | – |
| Nc1ncnc(N2CCC[C@@H](N3CCCC(Nc4cc(C(F)(F)F)cc(C(F)(F)F)c4)C3=O)C2)c1F (stereo partly drawn) [compound 310, (3′R)-1′-(6-Amino-5-fluoropyrimidin-4-yl)-3-(3,5-bis(trifluoromethyl)phenylamino)-1,3′-bipiperidin-2-one] | < 100 | – |
| Nc1ncnc(N2CCC[C@@H](N3CCC[C@@H](Nc4cc(Cl)cc(C(F)(F)F)c4)C3=O)C2)c1F [compound 311, (3R,3′R)-1′-(6-Amino-5-fluoropyrimidin-4-yl)-3-(3-chloro-5-(trifluoromethyl)phenylamino)-1,3′-bipiperidin-2-one] | – | IC50 (read-out: IC50 (10 uM ATP)): < 100 nM |
| Nc1ncnc(N2CCC[C@@H](N3CCC[C@H](Nc4cc(Cl)cc(C(F)(F)F)c4)C3=O)C2)c1F [compound 312, (3S,3′R)-1′-(6-Amino-5-fluoropyrimidin-4-yl)-3-(3-chloro-5-(trifluoromethyl)phenylamino)-1,3′-bipiperidin-2-one] | – | IC50 (read-out: IC50 (10 uM ATP)): < 100 nM |
| Nc1ncnc(N2CCC[C@@H](N3CCC[C@@H](Nc4cc(Cl)cc(Cl)c4)C3=O)C2)c1F [compound 315, (3R,3′R)-1′-(6-Amino-5-fluoropyrimidin-4-yl)-3-(3,5-dichlorophenylamino)-1,3′-bipiperidin-2-one] | < 100 | – |
| O=C1C(Nc2ccccc2S(=O)(=O)N2CCCCC2)CCCN1[C@@H]1CCCN(c2ncnc3[nH]ccc23)C1 (stereo partly drawn) [compound 318, (3′R)-3-(2-(Piperidin-1-ylsulfonyl)phenylamino)-1′-(7H-pyrrolo[2,3-d]pyrimidin-4-yl)-1,3′-bipiperidin-2-one] | < 100 | – |
| Nc1ncnc(N2CCC[C@@H](N3CCCC(Nc4ccccc4S(=O)(=O)C4CCCCC4)C3=O)C2)c1F (stereo partly drawn) [compound 320, (3′R)-1′-(6-Amino-5-fluoropyrimidin-4-yl)-3-(2-(cyclohexylsulfonyl)phenylamino)-1,3′-bipiperidin-2-one] | < 100 | – |
| O=C1[C@H](Nc2cc(Cl)cc(Cl)c2)CCN1[C@H]1CN(c2ncnc3[nH]ccc23)CC[C@@H]1C(F)(F)F [compound 322] | < 100 | – |
| O=C1[C@H](Nc2cc(Cl)cc(Cl)c2)CCN1[C@@H]1CCCN(c2ncnc3[nH]ccc23)C1 [compound 323, (R)-1-((R)-1-(7H-Pyrrolo[2,3-d]pyrimidin-4-yl)piperidin-3-yl)-3-(3,5-dichlorophenylamino)pyrrolidin-2-one] | < 100 | – |
| Nc1ncnc(N2CC[C@H](O)[C@@H](N3CCCC(Nc4cc(F)cc(Cl)c4)C3=O)C2)c1F (stereo partly drawn) [compound 324, trans-1′-(6-Amino-5-fluoropyrimidin-4-yl)-3-(3-chloro-5-fluorophenylamino)-4′-hydroxy-1,3′-bipiperidin-2-one] | < 100 | – |
| Nc1ncnc(N2CC[C@H](O)[C@@H](N3CCCC(Nc4cc(Cl)cc(Cl)c4)C3=O)C2)c1F (stereo partly drawn) [compound 325, trans 1′-(6-Amino-5-fluoropyrimidin-4-yl)-3-(3,5-dichlorophenylamino)-4′-hydroxy-1,3′-bipiperidin-2-one] | – | IC50: 100 to 999 nM |
| Nc1ncnc(N2CC[C@H](O)[C@@H](N3CCC[C@@H](Nc4cc(Cl)cc(Cl)c4)C3=O)C2)c1F [compound 326, trans (3R)-1′-(6-Amino-5-fluoropyrimidin-4-yl)-3-(3,5-dichlorophenylamino)-4′-hydroxy-1,3′-bipiperidin-2-one] | < 100 | – |
| Nc1ncnc(N2CC[C@@H](O)[C@H](N3CCC[C@@H](Nc4cc(Cl)cc(Cl)c4)C3=O)C2)c1F [compound 327, trans (3R)-1′-(6-Amino-5-fluoropyrimidin-4-yl)-3-(3,5-dichlorophenylamino)-4′-hydroxy-1,3′-bipiperidin-2-one] | < 100 | – |
| Nc1ncnc(N2CC[C@@H](O)[C@H](N3CCC[C@H](Nc4cc(Cl)cc(Cl)c4)C3=O)C2)c1F [compound 328, trans (3S)-1′-(6-Amino-5-fluoropyrimidin-4-yl)-3-(3,5-dichlorophenylamino)-4′-hydroxy-1,3′-bipiperidin-2-one] | – | IC50: 1000 to 10000 nM |
| Nc1ncnc(N2CC[C@H](C(F)(F)F)[C@@H](N3CCCC(Nc4cc(Cl)cc(Cl)c4)C3=O)C2)c1F (stereo partly drawn) [compound 334, trans 1′-(6-Amino-5-fluoropyrimidin-4-yl)-3-(3,5-dichlorophenylamino)-4′-(trifluoromethyl)-1,3′-bipiperidin-2-one] | < 100 | – |
| Nc1ncnc(N2CC[C@@H](C(F)(F)F)[C@H](N3CCC[C@@H](Nc4cc(Cl)cc(Cl)c4)C3=O)C2)c1F [compound 335, trans (3R)-1′-(6-Amino-5-fluoropyrimidin-4-yl)-3-(3,5-dichlorophenylamino)-4′-(trifluoromethyl)-1,3′-bipiperidin-2-one] | < 100 | – |
| Nc1ncnc(N2CC[C@@H](C(F)(F)F)[C@H](N3CCC[C@H](Nc4cc(Cl)cc(Cl)c4)C3=O)C2)c1F [compound 336, trans (3S)-1′-(6-Amino-5-fluoropyrimidin-4-yl)-3-(3,5-dichlorophenylamino)-4′-(trifluoromethyl)-1,3′-bipiperidin-2-one] | – | IC50: 1000 to 10000 nM |
